pIC50: −log10 of the molar value. Like-named read-outs stand apart in the source and are kept apart here.
Experiments:
in vitro = settings: human; for CC50 at 2 days: HEK293 Cell Viability Assay LC50, HEK293 cells, estimated from fitted dose-response curves; for viability at 2 days, 3.13 µM / viability at 2 days, 6.25 µM / viability at 2 days, 12.5 µM / viability at 2 days, 25 µM / viability at 2 days, 50 µM / viability at 2 days, 100 µM: HEK293 cells (Flp-In-293), HEK293 viability
[1] = biological target: B. taurus (heart) complex I (Bos taurus, UniProt P03887+P17694+P42026); test: biochemical; format: biochemical; settings: for pIC50: B. taurus heart mitochondria, read-out: B. taurus Complex I IC50; for activity at 0.0001 µM / activity at 0.0005 µM / activity at 0.001 µM / activity at 0.0025 µM / activity at 0.005 µM / activity at 0.013 µM / activity at 0.025 µM / activity at 0.063 µM / activity at 0.125 µM / activity at 0.313 µM / activity at 0.625 µM / activity at 1.5 µM / activity at 3 µM / activity at 15 µM / activity at 37.5 µM / activity at 75 µM: read-out: B. taurus mitochondrial complex I activity; for Log IC50 B. taurus complex I: log10 of IC50 in µM, B. taurus mitochondria
Procedure, shortened: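 Complex I activity followed as DCIP reduction (600 nm, 30 s reads, 15 min) with 80 μM NADH and 60 μM decylubiquinone in 25 mM KPi pH 7.5 containing 2 μM antimycin A and 2 mM KCN. Freeze-thawed mouse or bovine heart mitochondria at 0.2 mg/mL; initial-rate percent of solvent control, single-point 100 μM or dose-response.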

[2] = test system: ben-1 mutant (ECA882) C. elegans; test: microbe, parasite or virus in culture; settings: Caenorhabditis elegans
Procedure, shortened: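 Development and viability scored from single well images as total worm pixels divided by the matching DMSO control value, mean of ≥3 replicates. Worms added as synchronized L1s to HB101 suspension in liquid NGM with compound (1% DMSO v/v), grown 6 days at 20 °C with shaking.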

[3] = mean of at least two biological replicates
[4] = estimated from fitted dose-response curves
[5] = read-out: C. elegans (ben-1) Development & Viability Assay LC50
[6] = read-out: C. elegans ben-1 log10 LC50 (converted)
[7] = 50 μM, KCN survival assay, hit = relative motility below 0.25
[8] = Dose 0.2 µM, mean of at least three biological replicates
[9] = read-out: C. elegans ben-1(e1880) development/viability

Chain of B. taurus (heart) complex I (P03887 whole entry): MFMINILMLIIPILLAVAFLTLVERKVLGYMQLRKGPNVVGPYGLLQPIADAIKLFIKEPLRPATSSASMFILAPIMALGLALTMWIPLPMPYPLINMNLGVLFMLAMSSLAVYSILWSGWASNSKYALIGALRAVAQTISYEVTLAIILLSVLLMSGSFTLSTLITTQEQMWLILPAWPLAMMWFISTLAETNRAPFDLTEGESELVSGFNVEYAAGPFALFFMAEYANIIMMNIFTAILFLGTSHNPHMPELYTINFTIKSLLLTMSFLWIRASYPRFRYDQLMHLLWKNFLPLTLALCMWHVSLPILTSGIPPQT
Chain of B. taurus (heart) complex I (P17694 34-463): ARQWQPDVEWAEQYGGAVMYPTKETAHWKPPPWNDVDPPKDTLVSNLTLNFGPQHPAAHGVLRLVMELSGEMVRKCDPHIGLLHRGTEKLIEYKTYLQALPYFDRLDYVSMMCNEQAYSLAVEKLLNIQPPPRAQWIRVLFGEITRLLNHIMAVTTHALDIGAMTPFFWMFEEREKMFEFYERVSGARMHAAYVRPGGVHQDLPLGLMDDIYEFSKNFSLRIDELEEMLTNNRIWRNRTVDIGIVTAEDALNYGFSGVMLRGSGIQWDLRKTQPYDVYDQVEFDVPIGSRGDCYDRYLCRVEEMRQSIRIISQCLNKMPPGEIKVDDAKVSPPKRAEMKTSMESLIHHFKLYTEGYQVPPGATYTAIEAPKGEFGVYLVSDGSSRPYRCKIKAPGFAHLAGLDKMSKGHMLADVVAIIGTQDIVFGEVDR
Chain of B. taurus (heart) complex I (P42026 38-216): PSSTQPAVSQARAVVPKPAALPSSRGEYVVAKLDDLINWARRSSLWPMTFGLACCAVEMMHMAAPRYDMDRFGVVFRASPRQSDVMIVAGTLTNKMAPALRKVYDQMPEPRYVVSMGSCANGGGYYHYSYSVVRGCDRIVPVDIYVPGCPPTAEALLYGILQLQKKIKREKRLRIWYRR

Clc1ccc(Cn2cnc3ccccc32)c(Cl)c1 [Compound 6750659]
CC50 at 2 days (in vitro; [3]): 72.7 µM | viability at 2 days, 3.13 µM (in vitro): 95.5% | viability at 2 days, 6.25 µM (in vitro): 100% | viability at 2 days, 12.5 µM (in vitro): 100% | viability at 2 days, 25 µM (in vitro): 100% | viability at 2 days, 50 µM (in vitro): 76% | viability at 2 days, 100 µM (in vitro): 19.4% | pIC50 [1, 4]: 5.59 | activity at 0.0001 µM [1]: 93.1% | activity at 0.0005 µM [1]: 93.8% | activity at 0.001 µM [1]: 91.7% | activity at 0.0025 µM [1]: 100% | activity at 0.005 µM [1]: 91.7% | activity at 0.013 µM [1]: 94.7% | activity at 0.025 µM [1]: 92.7% | activity at 0.063 µM [1]: 89.8% | activity at 0.125 µM [1]: 83.5% | activity at 0.313 µM [1]: 77.1% | activity at 0.625 µM [1]: 78.3% | activity at 1.5 µM [1]: 60.6% | activity at 3 µM [1]: 42.8% | activity at 15 µM [1]: 8.04% | activity at 37.5 µM [1]: 1.6% | activity at 75 µM [1]: 1.94% | Log IC50 B. taurus complex I [1]: 0.41 µM | LC50 [2, 5]: 42.2 µM | LC50 [2, 6]: 42.3 µM | Screen "Hit" (L1 wild-type C. elegans; [7]): Y (hits were identified as compounds that reduced relative motility below 0.25 (75% reduction)) | C. elegans KCN Survival (L1 wild-type C. elegans; [8]): 0.888 | C. elegans KCN Survival (L1 wild-type C. elegans; Dose 0.39 µM): 0.896 | C. elegans KCN Survival (L1 wild-type C. elegans; Dose 1.56 µM): 0.908 | C. elegans KCN Survival (L1 wild-type C. elegans; Dose 3.13 µM): 0.544 | C. elegans KCN Survival (L1 wild-type C. elegans; Dose 6.25 µM): 0.267 | C. elegans KCN Survival (L1 wild-type C. elegans; Dose 12.5 µM): 0.023 | C. elegans KCN Survival (L1 wild-type C. elegans; Dose 25 µM): 0.000 | C. elegans KCN Survival (L1 wild-type C. elegans; Dose 50 µM): 0.000 | C. elegans KCN Survival (L1 wild-type C. elegans; Dose 100 µM): 0.000

C=CCn1c(-c2ccc(N(C)C)cc2)nc2ccccc21 [Compound 6873298]
CC50 at 2 days (in vitro; [3]): 65.3 µM | pIC50 [1, 4]: 4.68 | Log IC50 B. taurus complex I [1]: 1.32 µM | LC50 [2, 5]: 40.6 µM | LC50 [2, 6]: 40.6 µM | Screen "Hit" (L1 wild-type C. elegans; [7]): Y (hits were identified as compounds that reduced relative motility below 0.25 (75% reduction))

Clc1ccc(OCCn2cnc3ccccc32)c(Cl)c1 [Compound 7221649]
CC50 at 2 days (in vitro): 55.3 µM | viability at 2 days, 3.13 µM (in vitro): 100% | viability at 2 days, 6.25 µM (in vitro): 100% | viability at 2 days, 12.5 µM (in vitro): 100% | viability at 2 days, 25 µM (in vitro): 100% | viability at 2 days, 50 µM (in vitro): 61.2% | viability at 2 days, 100 µM (in vitro): 7.3% | pIC50 [1]: 4.97 | activity at 0.0001 µM [1]: 92.5% | activity at 0.0005 µM [1]: 88.5% | activity at 0.001 µM [1]: 89.7% | activity at 0.0025 µM [1]: 97.8% | activity at 0.005 µM [1]: 98.8% | activity at 0.013 µM [1]: 94.3% | activity at 0.025 µM [1]: 92% | activity at 0.063 µM [1]: 90.2% | activity at 0.125 µM [1]: 86.5% | activity at 0.313 µM [1]: 88% | activity at 0.625 µM [1]: 83.9% | activity at 1.5 µM [1]: 85.6% | activity at 3 µM [1]: 77.8% | activity at 15 µM [1]: 33% | activity at 37.5 µM [1]: 7.81% | activity at 75 µM [1]: 3.92% | Log IC50 B. taurus complex I [1]: 1.03 µM | LC50 [2, 5]: 37.2 µM | viability at 1 µM [2, 9]: 86.6% | viability at 2 µM [2, 9]: 85.6% | viability at 3.9 µM [2, 9]: 87.8% | viability at 15.6 µM [2, 9]: 91.2% | viability at 31.3 µM [2, 9]: 64.6% | viability at 62.5 µM [2, 9]: 3.9% | viability at 125 µM [2, 9]: 37.3% | LC50 [2, 6]: 37.2 µM | Screen "Hit" (L1 wild-type C. elegans; 50 μM, hit = relative motility below 0.25 3 hours after removal of KCN): Y (hits were identified as compounds that reduced relative motility below 0.25 (75% reduction)) | C. elegans KCN Survival (L1 wild-type C. elegans; [8]): 0.959 | C. elegans KCN Survival (L1 wild-type C. elegans; Dose 0.39 µM): 0.956 | C. elegans KCN Survival (L1 wild-type C. elegans; Dose 1.56 µM): 1.007 | C. elegans KCN Survival (L1 wild-type C. elegans; Dose 3.13 µM): 1.008 | C. elegans KCN Survival (L1 wild-type C. elegans; Dose 6.25 µM): 0.946 | C. elegans KCN Survival (L1 wild-type C. elegans; Dose 12.5 µM): 0.599 | C. elegans KCN Survival (L1 wild-type C. elegans; Dose 25 µM): 0.152 | C. elegans KCN Survival (L1 wild-type C. elegans; Dose 50 µM): 0.156 | C. elegans KCN Survival (L1 wild-type C. elegans; Dose 100 µM): 0.254

Nc1nc2ccccc2n1Cc1ccc(Br)cc1 [Compound 7313068]
CC50 at 2 days (in vitro; [3]): 41.7 µM | pIC50 [1, 4]: 5.88 | Log IC50 B. taurus complex I [1]: 0.12 µM | LC50 [2, 5]: 63.1 µM | LC50 [2, 6]: 63.1 µM | Screen "Hit" (L1 wild-type C. elegans; [7]): Y (hits were identified as compounds that reduced relative motility below 0.25 (75% reduction))

Cc1nc2ccccc2n1Cc1ccc(C(C)C)cc1 [Compound 7353551]
CC50 at 2 days (in vitro; [3]): 46.2 µM | pIC50 [1, 4]: 5.80 | Log IC50 B. taurus complex I [1]: 0.20 µM | LC50 [2, 5]: 91.5 µM | LC50 [2, 6]: 91.6 µM | Screen "Hit" (L1 wild-type C. elegans; 50 μM compound, hit = relative motility below 0.25 3 hours after removal of KCN): Y (hits were identified as compounds that reduced relative motility below 0.25 (75% reduction))

CCCOc1ccc(Cn2cnc3ccccc32)cc1 [Compound 7355741]
CC50 at 2 days (in vitro; [3]): 76.2 µM | viability at 2 days, 3.13 µM (in vitro): 99.8% | viability at 2 days, 6.25 µM (in vitro): 100% | viability at 2 days, 12.5 µM (in vitro): 100% | viability at 2 days, 25 µM (in vitro): 100% | viability at 2 days, 50 µM (in vitro): 78.9% | viability at 2 days, 100 µM (in vitro): 30.3% | pIC50 [1, 4]: 5.51 | activity at 0.0001 µM [1]: 95.3% | activity at 0.0005 µM [1]: 97.8% | activity at 0.001 µM [1]: 102% | activity at 0.0025 µM [1]: 105% | activity at 0.005 µM [1]: 102% | activity at 0.013 µM [1]: 104% | activity at 0.025 µM [1]: 109% | activity at 0.063 µM [1]: 57.4% | activity at 0.125 µM [1]: 101% | activity at 0.313 µM [1]: 97.1% | activity at 0.625 µM [1]: 86% | activity at 1.5 µM [1]: 75.9% | activity at 3 µM [1]: 37% | activity at 15 µM [1]: 13.2% | activity at 37.5 µM [1]: 1.26% | activity at 75 µM [1]: 2.32% | Log IC50 B. taurus complex I [1]: 0.49 µM | LC50 [2, 5]: 85.3 µM | LC50 [2, 6]: 85.3 µM | Screen "Hit" (L1 wild-type C. elegans; [7]): Y (hits were identified as compounds that reduced relative motility below 0.25 (75% reduction)) | C. elegans KCN Survival (L1 wild-type C. elegans; [8]): 0.923 | C. elegans KCN Survival (L1 wild-type C. elegans; Dose 0.39 µM): 0.831 | C. elegans KCN Survival (L1 wild-type C. elegans; Dose 1.56 µM): 0.783 | C. elegans KCN Survival (L1 wild-type C. elegans; Dose 3.13 µM): 1.007 | C. elegans KCN Survival (L1 wild-type C. elegans; Dose 6.25 µM): 0.620 | C. elegans KCN Survival (L1 wild-type C. elegans; Dose 12.5 µM): 0.122 | C. elegans KCN Survival (L1 wild-type C. elegans; Dose 25 µM): 0.000 | C. elegans KCN Survival (L1 wild-type C. elegans; Dose 50 µM): 0.000 | C. elegans KCN Survival (L1 wild-type C. elegans; Dose 100 µM): 0.000
